Experimental data taken from patent USRE48461E1, “Modulation of androgen receptor expression” (Ionis Pharmaceuticals, Inc., priority 2012, dated 2021).
Oligonucleotides are written 5' to 3', each unit as a sugar letter and its base; * is a phosphorothioate linkage, no mark a phosphodiester; rarer units and linkages stand in square brackets, end groups in braces. Plain capitals give the bases only. k = constrained ethyl (cEt); [5mC] = 5-methylcytosine; d = 2'-deoxy (DNA)

Tests used:
AR mRNA [1] = experiment: Antisense inhibition of human AR in HuVEC cells, single concentration (electroporation, qRT-PCR RTS3559); type: cell-based
Experimental: Antisense oligonucleotides were designed targeting an AR nucleic acid and were tested for their effects on AR mRNA in vitro. The antisense oligonucleotides were tested in a series of experiments that had similar culture conditions. […] Human primer probe set RTS3559 (forward sequence [NT], designated herein as SEQ ID NO: 9; reverse sequence [NT], designated herein as SEQ ID NO: 10; probe sequence [NT], designated herein as SEQ ID NO: 11) was used to measure mRNA levels. AR mRNA levels were adjusted according to total RNA content, as measured by RIBOGREEN®. […] A total of 155 oligonucleotides were tested. Additional antisense oligonucleotides were designed targeting an AR nucleic acid and were tested for their effects on AR mRNA in vitro. […] Human primer probe set RTS3559 was used to measure mRNA levels. AR mRNA levels were adjusted according to total RNA content, as measured by RIBOGREEN®. […] A total of 82 oligonucleotides were tested. Additional antisense oligonucleotides were designed targeting an AR nucleic acid and were tested for their effects on AR mRNA in vitro. […] Human primer probe set RTS3559 was used to measure mRNA levels. AR mRNA levels were adjusted according to total RNA content, as measured by RIBOGREEN®. […] A total of 40 oligonucleotides were tested. Additional antisense oligonucleotides were designed targeting an AR nucleic acid and were tested for their effects on AR mRNA in vitro. […] Human primer probe set RTS3559 was used to measure mRNA levels. AR mRNA levels were adjusted according to total RNA content, as measured by RIBOGREEN®. […] A total of 75 oligonucleotides were tested. Additional antisense oligonucleotides were designed targeting an AR nucleic acid and were tested for their effects on AR mRNA in vitro. […] Human primer probe set RTS3559 was used to measure mRNA levels. AR mRNA levels were adjusted according to total RNA content, as measured by RIBOGREEN®. […] A total of 616 oligonucleotides were tested. Additional antisense oligonucleotides were designed targeting an AR nucleic acid and were tested for their effects on AR mRNA in vitro. […] Human primer probe set RTS3559 was used to measure mRNA levels. AR mRNA levels were adjusted according to total RNA content, as measured by RIBOGREEN®. […] A total of 385 oligonucleotides were tested.

AR mRNA [2] = experiment: Dose-dependent antisense inhibition of human AR in HuVEC cells (electroporation, qRT-PCR RTS3559, IC50); type: cell-based; settings: HuVEC
Experimental: (§1) After a treatment period of approximately 16 hours, RNA was isolated from the cells and AR mRNA levels were measured by quantitative real-time PCR. Human AR primer probe set RTS3559 was used to measure mRNA levels. AR mRNA levels were adjusted according to total RNA content, as measured by RIBOGREEN®. […] The antisense oligonucleotides were tested in a series of experiments that had similar culture conditions.
as §1, §1, §1, §1
(§2) After a treatment period of approximately 16 hours, RNA was isolated from the cells and AR mRNA levels were measured by quantitative real-time PCR. Human AR primer probe set RTS3559 was used to measure mRNA levels. AR mRNA levels were adjusted according to total RNA content, as measured by RIBOGREEN®.
as §2

[3] = Table 20, 500 nM oligonucleotide, electroporation, approximately 24 hours, relative to untreated control
[4] = Table 32, electroporation, approximately 16 hours
[5] = Table 29, electroporation, approximately 16 hours
[6] = Table 24, 1,000 nM oligonucleotide, electroporation, approximately 24 hours, relative to untreated control
[7] = Table 35, electroporation, approximately 16 hours
[8] = Table 33, electroporation, approximately 16 hours
[9] = Table 31, electroporation, approximately 16 hours
[10] = Table 21, 500 nM oligonucleotide, electroporation, approximately 24 hours, relative to untreated control
[11] = Table 34, electroporation, approximately 16 hours
[12] = Table 36, electroporation, approximately 16 hours

583835 (kG*kA*kA*dG*d[5mC]*dT*dG*dT*dT*d[5mC]*d[5mC]*d[5mC]*d[5mC]*kT*kG*kG; antisense) [compound 583835]
% inhibition (AR mRNA [1]; [3]): 44% | percent inhibition of AR, 46.9 nM (AR mRNA [2]; [4]): 20% | percent inhibition of AR, 187.5 nM (AR mRNA [2]; [4]): 55% | percent inhibition of AR, 750.0 nM (AR mRNA [2]; [4]): 74% | percent inhibition of AR, 3000.0 nM (AR mRNA [2]; [4]): 88% | IC50 (AR mRNA [2]; [4]): 0.19 µM

583542 (antisense kA*k[5mC]*kA*dG*d[5mC]*dA*d[5mC]*dT*dG*dG*dA*dG*d[5mC]*kG*kG*k[5mC]) [compound 583542]
% inhibition (AR mRNA [1]; 500 nM ASO, ~24 h, Table 16): 45% | percent inhibition of AR, 46.9 nM (AR mRNA [2]; [5]): 9% | percent inhibition of AR, 187.5 nM (AR mRNA [2]; [5]): 28% | percent inhibition of AR, 750.0 nM (AR mRNA [2]; [5]): 47% | percent inhibition of AR, 3000.0 nM (AR mRNA [2]; [5]): 66% | IC50 (AR mRNA [2]; [5]): 0.9 µM

584179 (kA*kT*kG*dA*dG*dT*d[5mC]*d[5mC]*dT*d[5mC]*dA*dG*dA*kA*kT*k[5mC]; antisense) [compound 584179]
% inhibition (AR mRNA [1]; [6]): 74% | percent inhibition of AR, 46.9 nM (AR mRNA [2]; [7]): 1% | percent inhibition of AR, 187.5 nM (AR mRNA [2]; [7]): 25% | percent inhibition of AR, 750.0 nM (AR mRNA [2]; [7]): 62% | percent inhibition of AR, 3000.0 nM (AR mRNA [2]; [7]): 87% | IC50 (AR mRNA [2]; [7]): 0.44 µM

583833 (kT*kG*kT*dT*d[5mC]*d[5mC]*d[5mC]*d[5mC]*dT*dG*dG*dA*d[5mC]*kT*k[5mC]*kA; antisense) [compound 583833]
% inhibition (AR mRNA [1]; [3]): 37% | percent inhibition of AR, 46.9 nM (AR mRNA [2]; [8]): 26% | percent inhibition of AR, 187.5 nM (AR mRNA [2]; [8]): 43% | percent inhibition of AR, 750.0 nM (AR mRNA [2]; [8]): 70% | percent inhibition of AR, 3000.0 nM (AR mRNA [2]; [8]): 74% | IC50 (AR mRNA [2]; [8]): 0.26 µM

583731 (antisense k[5mC]*kG*k[5mC]*dG*d[5mC]*dA*d[5mC]*dG*d[5mC]*dT*d[5mC]*dT*dG*kG*kA*kA) [compound 583731]
% inhibition (AR mRNA [1]; 500 nM ASO, ~24 h, Table 18): 34% | percent inhibition of AR, 46.9 nM (AR mRNA [2]; [9]): 18% | percent inhibition of AR, 187.5 nM (AR mRNA [2]; [9]): 24% | percent inhibition of AR, 750.0 nM (AR mRNA [2]; [9]): 47% | percent inhibition of AR, 3000.0 nM (AR mRNA [2]; [9]): 58% | IC50 (AR mRNA [2]; [9]): 1.31 µM

584183 (kA*k[5mC]*kA*dG*dG*d[5mC]*dT*d[5mC]*dT*dG*dA*d[5mC]*dT*kA*kG*kG; antisense) [compound 584183]
% inhibition (AR mRNA [1]; [6]): 76% | percent inhibition of AR, 46.9 nM (AR mRNA [2]; [7]): 3% | percent inhibition of AR, 187.5 nM (AR mRNA [2]; [7]): 41% | percent inhibition of AR, 750.0 nM (AR mRNA [2]; [7]): 64% | percent inhibition of AR, 3000.0 nM (AR mRNA [2]; [7]): 87% | IC50 (AR mRNA [2]; [7]): 0.31 µM

583917 (kT*k[5mC]*kG*d[5mC]*dG*dA*d[5mC]*dT*d[5mC]*dT*dG*dG*dT*kA*k[5mC]*kG; antisense) [compound 583917]
% inhibition (AR mRNA [1]; [10]): 37% | percent inhibition of AR, 46.9 nM (AR mRNA [2]; [11]): 6% | percent inhibition of AR, 187.5 nM (AR mRNA [2]; [11]): 30% | percent inhibition of AR, 750.0 nM (AR mRNA [2]; [11]): 50% | percent inhibition of AR, 3000.0 nM (AR mRNA [2]; [11]): 70% | IC50 (AR mRNA [2]; [11]): 0.64 µM

549371 (kG*kT*kT*dG*dT*dA*dG*dT*dA*dG*dT*d[5mC]*dG*k[5mC]*kG*kA; antisense) [compound 549371]
% inhibition (AR mRNA [1]; 500 nM ASO, electroporation, ~24 h, Table 1): 93% | percent inhibition of AR (AR mRNA [2]; 55.6 nM, ~16 h, Table 3): 30% | percent inhibition of AR (AR mRNA [2]; 166.7 nM, ~16 h, Table 3): 52% | percent inhibition of AR (AR mRNA [2]; 500.0 nM, ~16 h, Table 3): 83% | percent inhibition of AR (AR mRNA [2]; 1500.0 nM, ~16 h, Table 3): 88% | IC50 (AR mRNA [2]; ~16 h, Table 3): 0.148 µM

583566 (antisense k[5mC]*k[5mC]*kT*dT*dG*d[5mC]*dT*dT*d[5mC]*d[5mC]*dT*d[5mC]*d[5mC]*kG*kA*kG) [compound 583566]
% inhibition (AR mRNA [1]; 500 nM ASO, ~24 h, Table 16): 47% | percent inhibition of AR, 46.9 nM (AR mRNA [2]; [5]): 0% | percent inhibition of AR, 187.5 nM (AR mRNA [2]; [5]): 28% | percent inhibition of AR, 750.0 nM (AR mRNA [2]; [5]): 50% | percent inhibition of AR, 3000.0 nM (AR mRNA [2]; [5]): 74% | IC50 (AR mRNA [2]; [5]): 0.73 µM

583969 (k[5mC]*k[5mC]*kT*dT*d[5mC]*dT*dT*d[5mC]*dG*dG*d[5mC]*dT*dG*kT*kG*kA; antisense) [compound 583969]
% inhibition (AR mRNA [1]; [10]): 44% | percent inhibition of AR, 46.9 nM (AR mRNA [2]; [8]): 12% | percent inhibition of AR, 187.5 nM (AR mRNA [2]; [8]): 26% | percent inhibition of AR, 750.0 nM (AR mRNA [2]; [8]): 66% | percent inhibition of AR, 3000.0 nM (AR mRNA [2]; [8]): 86% | IC50 (AR mRNA [2]; [8]): 0.44 µM

583834 (kA*kG*k[5mC]*dT*dG*dT*dT*d[5mC]*d[5mC]*d[5mC]*d[5mC]*dT*dG*kG*kA*k[5mC]; antisense) [compound 583834]
% inhibition (AR mRNA [1]; [3]): 52% | percent inhibition of AR, 46.9 nM (AR mRNA [2]; [4]): 34% | percent inhibition of AR, 187.5 nM (AR mRNA [2]; [4]): 54% | percent inhibition of AR, 750.0 nM (AR mRNA [2]; [4]): 73% | percent inhibition of AR, 3000.0 nM (AR mRNA [2]; [4]): 84% | IC50 (AR mRNA [2]; [4]): 0.13 µM

560137 (antisense TTGATTTAATGGTTGC; all C 5-methyl, all phosphorothioate, sugars by position not given here; further chemistry not fully specified) [compound 560137]
% inhibition (AR mRNA [1]; 250 nM ASO, ~24 h, Table 7): 66% | % inhibition (AR mRNA [1]; 500 nM ASO, ~24 h, Table 5): 95% | percent inhibition of AR (AR mRNA [2]; 31.25 nM, ~16 h, Table 6): 27% | percent inhibition of AR (AR mRNA [2]; 31.25 nM, ~16 h, Table 8): 35% | percent inhibition of AR (AR mRNA [2]; 62.5 nM, ~16 h, Table 6): 49% | percent inhibition of AR (AR mRNA [2]; 62.5 nM, ~16 h, Table 8): 39% | percent inhibition of AR (AR mRNA [2]; 125.0 nM, ~16 h, Table 6): 61% | percent inhibition of AR (AR mRNA [2]; 125.0 nM, ~16 h, Table 8): 64% | percent inhibition of AR (AR mRNA [2]; 500.0 nM, ~16 h, Table 6): 91% | percent inhibition of AR (AR mRNA [2]; 500.0 nM, ~16 h, Table 8): 89% | percent inhibition of AR (AR mRNA [2]; 1000.0 nM, ~16 h, Table 6): 96% | percent inhibition of AR (AR mRNA [2]; 1000.0 nM, ~16 h, Table 8): 94% | IC50 (AR mRNA [2]; ~16 h, Table 6): 0.1 µM | IC50 (AR mRNA [2]; ~16 h, Table 8): 0.08 µM

584245 (kA*kG*kG*dT*dT*dA*dG*dG*dG*dA*dG*dT*dA*kG*kG*k[5mC]; antisense) [compound 584245]
% inhibition (AR mRNA [1]; Table 25, 1,000 nM oligonucleotide, electroporation, approximately 24 hours, relative to untreated control): 70% | percent inhibition of AR, 46.9 nM (AR mRNA [2]; [12]): 4% | percent inhibition of AR, 187.5 nM (AR mRNA [2]; [12]): 33% | percent inhibition of AR, 750.0 nM (AR mRNA [2]; [12]): 69% | percent inhibition of AR, 3000.0 nM (AR mRNA [2]; [12]): 90% | IC50 (AR mRNA [2]; [12]): 0.32 µM
